Assay results published in PubChem BioAssay AID2060908 (Molecular Pharmacology Branch, DTP, NCI, 2025).
Several values for one entry are separate records, joined by “and”; a condition that tells them apart may be missing. Equal entries are not always repeated.

Tested on: 186277-243-T-J2-PDC complex spheroids, viability
Test: Anticancer human tumor 186277-243-T-J2-PDC patient-derived colon adenocarcinoma cell line growth inhibition [RAS]
Details: for viability, T/C: stronger effect = lower value
Summary of the method: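 Tumour cells grown as complex spheroids with HUVEC endothelial cells and mesenchymal stem cells, treated with RAS pathway inhibitor combinations. Each agent spans half-log steps from near clinical Cmax, or 10 microM where Cmax is unknown.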
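Note: spheroids exposed to compounds for 7 days before viability read.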

Compound CC(Nc1ccc2c(c1)OCCn1cc(N3C(=O)OCC3C(F)F)nc1-2)C(N)=O (centres undefined) + CCn1c(-c2cc(N3CCN(C)CC3)cnc2C(C)OC)c2c3cc(ccc31)-c1csc(n1)CC(NC(=O)C1CC1C)C(=O)N1CCCC(N1)C(=O)OCC(C)(C)C2 has an IC50 (curve of first compound, second compound 0.000949 µM) of 0.347 µM, an IC50 (curve of first compound, second compound 0.003 µM) of 0.0885 µM and an IC50 (curve of first compound, second compound 0.00949 µM) of under 0.0316 µM. For the same compound, the IC50 (curve of first compound, second compound 0.03 µM) was under 0.0316 µM, the IC50 (curve of first compound, second compound 0.0949 µM) was under 0.0316 µM and the IC50 (curve of first compound, second compound 0.3 µM) was under 0.0316 µM. For the same compound, the viability, T/C (second compound 0.000949 µM, first compound 0.0316 µM) was 97.7%, the viability, T/C (second compound 0.000949 µM, first compound 0.1 µM) was 86.3% and the viability, T/C (second compound 0.000949 µM, first compound 0.316 µM) was 48.7%. The viability, T/C (second compound 0.000949 µM, first compound 1 µM) was 27.3%, the viability, T/C (second compound 0.000949 µM, first compound 3.16 µM) was 14.1% and the viability, T/C (second compound 0.000949 µM, first compound 10 µM) was 7.59%. It also gave a viability, T/C (second compound 0.003 µM, first compound 0.0316 µM) of 81.8%, a viability, T/C (second compound 0.003 µM, first compound 0.1 µM) of 46.6% and a viability, T/C (second compound 0.003 µM, first compound 0.316 µM) of 16.8%. It also gave a viability, T/C (second compound 0.003 µM, first compound 1 µM) of 8.63%, a viability, T/C (second compound 0.003 µM, first compound 3.16 µM) of 3.59% and a viability, T/C (second compound 0.003 µM, first compound 10 µM) of 2.34%. For the same compound, the viability, T/C (second compound 0.00949 µM, first compound 0.0316 µM) was 28%, the viability, T/C (second compound 0.00949 µM, first compound 0.1 µM) was 14.8% and the viability, T/C (second compound 0.00949 µM, first compound 0.316 µM) was 4.68%. The viability, T/C (second compound 0.00949 µM, first compound 1 µM) was 2.07%, the viability, T/C (second compound 0.00949 µM, first compound 3.16 µM) was 1.18% and the viability, T/C (second compound 0.00949 µM, first compound 10 µM) was 0.72%. It also gave a viability, T/C (second compound 0.03 µM, first compound 0.0316 µM) of 8.29%, a viability, T/C (second compound 0.03 µM, first compound 0.1 µM) of 4.59% and a viability, T/C (second compound 0.03 µM, first compound 0.316 µM) of 1.59%. For the same compound, the viability, T/C (second compound 0.03 µM, first compound 1 µM) was 0.91%, the viability, T/C (second compound 0.03 µM, first compound 3.16 µM) was 0.49% and the viability, T/C (second compound 0.03 µM, first compound 10 µM) was 0.23%. For the same compound, the viability, T/C (second compound 0.0949 µM, first compound 0.0316 µM) was 4.51%, the viability, T/C (second compound 0.0949 µM, first compound 0.1 µM) was 2.41% and the viability, T/C (second compound 0.0949 µM, first compound 0.316 µM) was 1.01%. For the same compound, the viability, T/C (second compound 0.0949 µM, first compound 1 µM) was 0.59%, the viability, T/C (second compound 0.0949 µM, first compound 3.16 µM) was 0.45% and the viability, T/C (second compound 0.0949 µM, first compound 10 µM) was 0.24%. The viability, T/C (second compound 0.3 µM, first compound 0.0316 µM) was 3.65%, the viability, T/C (second compound 0.3 µM, first compound 0.1 µM) was 2.08% and the viability, T/C (second compound 0.3 µM, first compound 0.316 µM) was 0.89%. For the same compound, the viability, T/C (second compound 0.3 µM, first compound 1 µM) was 0.55%, the viability, T/C (second compound 0.3 µM, first compound 3.16 µM) was 0.35% and the viability, T/C (second compound 0.3 µM, first compound 10 µM) was 0.29%.

Work on CCc1c2c(nc3ccc(O)cc13)-c1cc3c(c(=O)n1C2)COC(=O)[C@]3(O)CC + C=CC(=O)N1CCN(c2nc(OCC3CCCN3C)nc3c(F)c(-c4nc(N)cc(C)c4C(F)(F)F)c(Cl)cc23)C(C)C1 yielded an IC50 (curve of first compound, second compound 0.00316 µM) of 0.018 µM, an IC50 (curve of first compound, second compound 0.01 µM) of 0.0154 µM and an IC50 (curve of first compound, second compound 0.0316 µM) of 0.0289 µM. It also gave an IC50 (curve of first compound, second compound 0.1 µM) of 0.0226 µM, an IC50 (curve of first compound, second compound 0.316 µM) of 0.0262 µM and an IC50 (curve of first compound, second compound 1 µM) of 0.0275 µM. For the same compound, the viability, T/C (second compound 0.00316 µM, first compound 0.000949 µM) was 115%, the viability, T/C (second compound 0.00316 µM, first compound 0.003 µM) was 94.9% and the viability, T/C (second compound 0.00316 µM, first compound 0.00949 µM) was 61.3%. For the same compound, the viability, T/C (second compound 0.00316 µM, first compound 0.03 µM) was 40.9%, the viability, T/C (second compound 0.00316 µM, first compound 0.0949 µM) was 22.4% and the viability, T/C (second compound 0.00316 µM, first compound 0.3 µM) was 14.9%. The viability, T/C (second compound 0.01 µM, first compound 0.000949 µM) was 120%, the viability, T/C (second compound 0.01 µM, first compound 0.003 µM) was 87.5% and the viability, T/C (second compound 0.01 µM, first compound 0.00949 µM) was 55%. For the same compound, the viability, T/C (second compound 0.01 µM, first compound 0.03 µM) was 40.1%, the viability, T/C (second compound 0.01 µM, first compound 0.0949 µM) was 25.7% and the viability, T/C (second compound 0.01 µM, first compound 0.3 µM) was 14.2%. The viability, T/C (second compound 0.0316 µM, first compound 0.000949 µM) was 110%, the viability, T/C (second compound 0.0316 µM, first compound 0.003 µM) was 95.6% and the viability, T/C (second compound 0.0316 µM, first compound 0.00949 µM) was 68.7%. It also gave a viability, T/C (second compound 0.0316 µM, first compound 0.03 µM) of 56.6%, a viability, T/C (second compound 0.0316 µM, first compound 0.0949 µM) of 21.8% and a viability, T/C (second compound 0.0316 µM, first compound 0.3 µM) of 15.6%. The viability, T/C (second compound 0.1 µM, first compound 0.000949 µM) was 109%, the viability, T/C (second compound 0.1 µM, first compound 0.003 µM) was 98.1% and the viability, T/C (second compound 0.1 µM, first compound 0.00949 µM) was 68.7%. The viability, T/C (second compound 0.1 µM, first compound 0.03 µM) was 46%, the viability, T/C (second compound 0.1 µM, first compound 0.0949 µM) was 20.3% and the viability, T/C (second compound 0.1 µM, first compound 0.3 µM) was 13.7%. The viability, T/C (second compound 0.316 µM, first compound 0.000949 µM) was 89.2%, the viability, T/C (second compound 0.316 µM, first compound 0.003 µM) was 91.9% and the viability, T/C (second compound 0.316 µM, first compound 0.00949 µM) was 65.5%. For the same compound, the viability, T/C (second compound 0.316 µM, first compound 0.03 µM) was 51%, the viability, T/C (second compound 0.316 µM, first compound 0.0949 µM) was 24.5% and the viability, T/C (second compound 0.316 µM, first compound 0.3 µM) was 17.4%. It also gave a viability, T/C (second compound 1 µM, first compound 0.000949 µM) of 93.2%, a viability, T/C (second compound 1 µM, first compound 0.003 µM) of 76.1% and a viability, T/C (second compound 1 µM, first compound 0.00949 µM) of 73%. For the same compound, the viability, T/C (second compound 1 µM, first compound 0.03 µM) was 47.1%, the viability, T/C (second compound 1 µM, first compound 0.0949 µM) was 29% and the viability, T/C (second compound 1 µM, first compound 0.3 µM) was 17.5%.

With Cc1nc(N2CCC3(CC2)COC(C)C3N)c(CO)nc1Sc1ccnc(N)c1Cl (centres undefined) the viability, T/C (compound 0.0316 µM) was 101% [middle of 4 runs], the viability, T/C (compound 0.316 µM) was 107% [middle of 4 runs] and the viability, T/C (compound 1 µM) was 110% (2×) and 105% and 119%. The viability, T/C (compound 3.16 µM) was 119% (2×) and 105% and 91.9% and the IC50 (curve of compound) was over 10 µM.
